Test system: Pichia stipitis UC7 NRRL Y-21448
Test: Testing for sensitivity to Zeocin: plating on YPD pH 7.5 with Zeocin
Type: cell-based
Conditions: plated on YPD pH 7.5; Zeocin tested from 25 μg/ml to 500 μg/ml
Method: Pichia stipitis UC7 NRRL Y-21448 (2) is a ura3 auxotrophic mutant of P. stipitis CBS 6054 (ARS Culture Collection, NRRL USDA Peoria, Ill.). To test if Pichia stipitis UC7 is sensitive to Zeocin, UC7 was plated on YPD (Kaiser, Michaelis and Mitchell, 1994) pH 7.5 (1% yeast extract, 2% peptone, 2% dextrose, NaOH to pH 7.5) in the presence of Zeocin (Invitrogen) at a concentration of from 25 μg/ml to 500 μg/ml. Zeocin concentrations of 100 μg/ml or greater killed Pichia stipitis UC7.

Structure (SMILES): Cc1c(N)nc([C@H](CC(N)=O)NC[C@H](N)C(N)=O)nc1C(=O)N[C@H](C(=O)N[C@H](C)[C@@H](O)[C@H](C)C(=O)N[C@H](C(=O)NCCC1=N[C@@H](c2nc(C(=O)NCCCCN=C(N)N)cs2)CS1)[C@@H](C)O)[C@@H](O[C@@H]1O[C@@H](CO)[C@@H](O)[C@H](O)[C@@H]1O[C@H]1O[C@H](CO)[C@@H](O)[C@H](OC(N)=O)[C@@H]1O)c1cnc[nH]1 [Zeocin]
- Zeocin concentrations that killed Pichia stipitis UC7: ≥ 100 µg/mL

From patent US7501275B2, “Yeast transformation system” (The United States of America as represented by the …, priority 2004, dated 2009)
